The results in this text go back to patent US20260248788A1, “NEW COMPOUNDS AND TREATMENT OF RENAL CELL CARCINOMA” (TRUSTLIFE THERAPEUTICS INC., priority 2023, published 2026).

Entries after “also recorded” stand apart in the source; their conditions may differ.

What all share (type): cell-based, human
Series [1] relates to Caki-1 cells. The experiment in a line: Cell morphology (DIC images) of treated Caki-1 cells. To be noted: Caki-1, 10 μM, 1 day; for effect on the cell morphology: DIC images (FIG. 52). An excerpt: The effect of treatment of Caki-1 cells with the target compounds was further evaluated by monitoring the cell morphology of treated cells, see FIG. 52.
The subject of series [2] is Caki-1 cells. As to the kind of experiment: LDH cytotoxicity assay. To be noted: for cytotoxicity (LDH assay): Caki-1, 10 μM; for cytotoxicity (LDH assay) / Ranking, Cytotoxicity (%): 1 day; for cell death / toxicity (LDH): Caki-1, 10 and 30 μM; for cytotoxicity according to LDH assay (conclusion): Caki-1; for cytotoxicity according to LDH assay (conclusion) / cytotoxicity (summary statement): concentration not given; for cytotoxic effect and dose dependence: Caki-1, 10 nM-30 μM; for Ranking, Cytotoxicity (%): top five, LDH assay, 10 μM, rank 1 = highest. The method, then:
(§1) Cell culture 2: Caki-1 was purchased from CLS Cell Lines Service (Germany). The cells were maintained in McCoy's 5A (modified) medium (16600082, Thermo Fisher Scientific, USA) and supplemented with 10% fetal bovine serum (FBS, F7524, Sigma-Aldrich), 1% Penicillin/Streptomycin (P4333, Sigma-Aldrich).
Lactate dehydrogenase (LDH) assay was performed with LDH Assay Kit (ab65393). […] 20 μl of media was analysed with LDH Assay Kit as per manufacturer's instruction.

The subject of series [3] is Caki-1 cells. The experiment in a line: MTT cell viability assay. Conditions: for reduction in cell viability (MTT) / effect on cell viability (MTT): 1 day; for cell viability over the treatment period (MTT): 27 h, 48 h and 72 h (FIG. 55); for reduction in cell viability according to MTT assay (conclusion): Caki-1; for reduction in cell viability according to MTT assay (conclusion) / cell viability of treated cells (summary statement): concentration not given; for change of IC50 values after 2 days compared to 1 day treatment: Caki-1 (FIG. 53-54); for IC50 values compared with TG-101209: Caki-1, 1 and 2 days (FIG. 53-54). The method, then:
as §1
The cytotoxic effects of the TG-101209 and its alternatives on the Caki-1 cells were tested by MTT (Thiazolyl Blue Tetrazolium Bromide) method. 1.5×10^4 cells were seeded per well in a 96-well plate in 100 μL growth media. […] After the incubation period, 5 mg/ml MTT (M2128, Sigma-Aldrich) solution in PBS (10 μL) was added to each well. After 1 hour, the MTT solution and all media were removed from the wells. 100 μl of DMSO was added and mixed to dissolve the formazan crystals. Cell viability was analysed by measuring the absorbance of the dissolved formazan at a wavelength of 570 nm with a microplate reader (Hidex Sense Beta Plus).
For orientation: Tetrazolium assays rely on reduction of a dye to a coloured formazan, in cell work by metabolically active cells.

For series [4], the system named is BUB1B. The experiment in a line: Western blot of BUB1B in Caki-1 cells treated with TG-101209 derivatives. To be noted: for expression levels of BUB1B (Western blot): Caki-1 cells, 5 μM of target drug, 1 day (FIG. 41, 56); for expression levels of BUB1B (summary statement): concentration not given. As to the method: as §1
The target drugs developed as alternatives to TG-101209, were dissolved in 0.1% DMSO (41639, Sigma-Aldrich). Caki-1 cells from cell culture 2 were seeded in a 6-well plate at 3×10^5 cells per well. […]
The cells were washed with PBS solution and then lysed with CelLytic M (C2978, Sigma-Aldrich) lysis buffer containing protease inhibitors (11836170001, Roche). The cell lysates were centrifuged at 12 000 rpm for 10 min and supernatants were collected. Protein Assay Dye Reagent (5000006, Bio-Rad) was used for the determination of protein concentration. The absorbance of the proteins was measured spectrophotometrically at 595 nm by a microplate reader (Hidex Sense Beta Plus). Protein electrophoresis was performed using Mini-PROTEAN® TGX™ Precast Gels (4561086, Bio-Rad) and then the separated proteins were transferred to a Trans-Blot Turbo Mini 0.2 μm PVDF Transfer Packs membrane (1704158, Bio-Rad) by using Trans-Blot® Turbo™ Transfer System (Bio-Rad). The membrane was blocked with 5% skim milk for 30 min at 4° C. with gentle rocking. After blocking, the membrane was treated with primary antibodies: Anti-BUB1B (HPA008419, Human Protein Atlas, Sweden) and Anti-Beta actin (ab8227, Abcam) as a loading control overnight at 4° C. on a rocking platform. After the treatment of primary antibodies, the membrane was washed three times with TBS-T buffer (A09-7500-100, Medicago). Then, Goat anti-Rabbit IgG-HRP (ab205718, Abcam) was treated as the secondary antibody for 30 min at 4° C. with gentle rocking.
In general terms: In western blotting, separated proteins are transferred to a membrane and probed.

Take `Cc1cnc(Nc2ccc(C(=O)Nc3ccc(N4CCN(C)CC4)cc3)cc2)nc1Nc1cccc(S(=O)(=O)NC(C)(C)C)c1` [Compound M101N, 4-((4-((3-(N-(tert-butyl)sulfamoyl)phenyl)amino)-5-methylpyrimidin-2-yl)amino)-N-(4-(4-methylpiperazin-1-yl)phenyl)benzamide]: in series [1], the “mechanism according to morphology evaluation” value was “work as cytotoxic agents” and the “effect on the cell morphology” value was “distinct effect on the cell morphology”. Moreover, the “cytotoxicity (LDH assay)” value in series [2] (second batch) is on record as “greatest cytotoxicity”. In series [2], the “cell death / toxicity (LDH)” value is on record as “strong toxicity”, the “cytotoxicity according to LDH assay (conclusion)” value (“cytotoxicity according” for short) was “greatest cytotoxicity” and the “cytotoxicity (summary statement)” value is given as “high cytotoxicity”. In addition, in series [3] (Caki-1, 10 μM, second batch), the “reduction in cell viability (MTT)” value is on record as “the greatest”. Further, in series [3] (Caki-1, 10 μM), the “cell viability over the treatment period (MTT)” value is on record as “larger decrease in cell viability than TG-101209”. For the same compound, in series [3], the “reduction in cell viability according to MTT assay (conclusion)” value (shortened to “reduction in cell viability according”) is “greatest reduction in cell viability” and the “cell viability of treated cells (summary statement)” value (shortened to “cell viability of treated cells”) is listed as “particularly low cell viability; also recorded: significantly reduced cell viability”. Further, the “expression levels of BUB1B (Western blot)” value in series [4] was “did not affect the expression levels of BUB1B”.

As for `COc1cc(Nc2ncc(C)c(Nc3cccc(S(=O)(=O)NC(C)(C)C)c3)n2)cc(OC)c1OC` [Compound M76, N-(tert-butyl)-3-((5-methyl-2-((3,4,5-trimethoxyphenyl)amino)pyrimidin-4-yl)amino)benzenesulfonamide], in series [1], the “mechanism according to morphology evaluation” value is recorded as “cell growth inhibition mechanism” and the “effect on the cell morphology” value was “distinct effect on the cell morphology”. In addition, in series [2], the “cytotoxic effect and dose dependence” value is reported as “dose dependent toxicity”; the “cytotoxicity according” value is recorded as “greatest cytotoxicity”. Further, in series [3], the “change of IC50 values after 2 days compared to 1 day treatment” value was “largest decrease”, the “IC50 values compared with TG-101209” value was “better IC50 values than TG-101209”, the “reduction in cell viability according” value is given as “greatest reduction in cell viability” and the “cell viability of treated cells” value is listed as “especially low cell viability; also recorded: significantly reduced cell viability”. In series [3] (Caki-1, 10 μM, second batch), the “reduction in cell viability (MTT)” value was “the greatest”. In series [3] (Caki-1, 10 μM), the “cell viability over the treatment period (MTT)” value was “larger decrease in cell viability than TG-101209”. For the same compound, the “IC50 value after treatment for 1 day” value in series [3] (Caki-1, doses 10 nM to 30 μM (FIG. 53)) was “lowest IC50 value”. Also, in series [4], the “expression levels of BUB1B (Western blot)” value is “ability to lower the expression levels of BUB1B” and the “expression levels of BUB1B (summary statement)” value is “reduction of the expression levels of BUB1B”.

In the case of `Cc1ccc(Nc2ncc(C)c(Nc3cccc(S(=O)(=O)NC(C)(C)C)c3)n2)cc1S(N)(=O)=O` [Compound M66, N-(tert-butyl)-3-((5-methyl-2-((4-methyl-3-sulfamoylphenyl)amino)pyrimidin-4-yl)amino)benzenesulfonamide], the “cytotoxicity (LDH assay)” value in series [2] (first batch) is on record as “exhibited cytotoxicity”. The “Ranking, Cytotoxicity (%)” value in series [2] is given as 4. Also, the “reduction in cell viability (MTT)” value in series [3] (Caki-1, 5 μM, first batch) was “the greatest”. Further, the “effect on cell viability (MTT)” value in series [3] (Caki-1, 10 μM, first batch) was “most profound effect”. Further, the “cell viability of treated cells” value in series [3] is “particularly low cell viability; also recorded: significantly reduced cell viability”. Further, in series [4], the “expression levels of BUB1B (Western blot)” value was “significantly lower the expression levels of BUB1B” and the “expression levels of BUB1B (summary statement)” value is “reduction of the expression levels of BUB1B”.

`Cc1cnc(Nc2ccc(N3CCN(C)CC3)cc2)nc1Nc1cccc(S(=O)(=O)NC2CCC2)c1` [Compound M5, N-cyclobutyl-3-((5-methyl-2-((4-(4-methylpiperazin-1-yl)phenyl)amino)pyrimidin-4-yl)amino)benzenesulfonamide]: in series [1], the “mechanism according to morphology evaluation” value was “cell growth inhibition mechanism” and the “effect on the cell morphology” value is given as “distinct effect on the cell morphology”. In addition, in series [2], the “cytotoxic effect and dose dependence” value is reported as “dose dependent toxicity”; the “Ranking, Cytotoxicity (%)” value turned out to be 2. Besides, the “cytotoxicity (LDH assay)” value in series [2] (first batch) is “highest cytotoxicity”. Moreover, in series [3], the “change of IC50 values after 2 days compared to 1 day treatment” value is recorded as “largest decrease”, the “IC50 values compared with TG-101209” value is “better IC50 values than TG-101209” and the “cell viability of treated cells” value is given as “especially low cell viability; also recorded: particularly low cell viability”. Also, in series [3] (Caki-1, 5 μM, first batch), the “reduction in cell viability (MTT)” value was “the greatest”. Besides, the “effect on cell viability (MTT)” value in series [3] (Caki-1, 10 μM, first batch) is “greatest reduction of cell viability”. In series [3] (Caki-1, 10 μM), the “cell viability over the treatment period (MTT)” value is recorded as “larger decrease in cell viability than TG-101209”. In addition, in series [4], the “expression levels of BUB1B (Western blot)” value is recorded as “significantly lower the expression levels of BUB1B” and the “expression levels of BUB1B (summary statement)” value is “reduction of the expression levels of BUB1B”.

As to `Cc1cnc(Nc2ccc(N3CCN(C)CC3)cc2)nc1Nc1cccc(S(=O)(=O)N2CCOCC2)c1` [Compound M7, 5-methyl-N2-(4-(4-methylpiperazin-1-yl)phenyl)-N4-(3-(morpholinosulfonyl)phenyl)pyrimidine-2,4-diamine], the “cell viability of treated cells” value in series [3] was “especially low cell viability; also recorded: reduced cell viability”. Also, in series [4], the “expression levels of BUB1B (Western blot)” value was “significantly lower the expression levels of BUB1B” and the “expression levels of BUB1B (summary statement)” value is given as “reduction of the expression levels of BUB1B”.

`COc1cc(Nc2ncc(C)c(Nc3cccc(S(=O)(=O)NC4CCC4)c3)n2)cc(OC)c1OC` [Compound M120, N-cyclobutyl-3-((5-methyl-2-((3,4,5-trimethoxyphenyl)amino)pyrimidin-4-yl)amino)benzenesulfonamide]: the “reduction in cell viability (MTT)” value in series [3] (Caki-1, 10 μM, second batch) is on record as “the greatest”. Besides, in series [3], the “cell viability of treated cells” value is reported as “especially low cell viability; also recorded: particularly low cell viability; also recorded: significantly reduced cell viability”. Besides, the “expression levels of BUB1B (summary statement)” value in series [4] is recorded as “reduction of the expression levels of BUB1B”.

Regarding `COc1cc(Nc2ncc(C)c(Nc3cccc(S(=O)(=O)NC(C)(C)C)c3)n2)cc(OC)c1` [Compound M79, N-(tert-butyl)-3-((2-((3,5-dimethoxyphenyl)amino)-5-methylpyrimidin-4-yl)amino)benzenesulfonamide], in series [3], the “cell viability of treated cells” value is on record as “especially low cell viability; also recorded: significantly reduced cell viability”. For the same compound, in series [4], the “expression levels of BUB1B (Western blot)” value is given as “significantly lower the expression levels of BUB1B” and the “expression levels of BUB1B (summary statement)” value is given as “reduction of the expression levels of BUB1B”.

Consider `Cc1cnc(Nc2ccc(C(=O)Nc3ccc(OCCN4CCCC4)cc3)cc2)nc1Nc1cccc(S(=O)(=O)NC(C)(C)C)c1` [Compound M101P, 4-((4-((3-(N-(tert-butyl)sulfamoyl)phenyl)amino)-5-methylpyrimidin-2-yl)amino)-N-(4-(2-(pyrrolidin-1-yl)ethoxy)phenyl)benzamide], for which, in series [1], the “mechanism according to morphology evaluation” value was “work as cytotoxic agents” and the “effect on the cell morphology” value is reported as “distinct effect on the cell morphology”. For the same compound, in series [2] (second batch), the “cytotoxicity (LDH assay)” value is on record as “greatest cytotoxicity”. For the same compound, in series [2], the “cell death / toxicity (LDH)” value is given as “strong toxicity”, the “cytotoxicity according” value is “greatest cytotoxicity” and the “cytotoxicity (summary statement)” value is “high cytotoxicity”. In addition, in series [3] (Caki-1, 10 μM, second batch), the “reduction in cell viability (MTT)” value was “the greatest”. The “cell viability over the treatment period (MTT)” value in series [3] (Caki-1, 10 μM) is “larger decrease in cell viability than TG-101209”. For the same compound, in series [3], the “reduction in cell viability according” value is on record as “greatest reduction in cell viability” and the “cell viability of treated cells” value is reported as “particularly low cell viability; also recorded: significantly reduced cell viability”. For the same compound, in series [4], the “expression levels of BUB1B (Western blot)” value was “ability to lower the expression levels of BUB1B”.
